The text below walks through data of patent EP0181471A1, “Pyrazole derivatives, process for their preparation and medicaments containing them” (LUDWIG HEUMANN & CO GMBH, priority 1984, dated 1986).

This assay deals with Histamin-H2-Rezeptoren. Nature of the assay: Inhibition of histamine-stimulated gastric acid secretion in the conscious fistula cat. It is filed as in vivo. The following applies: wache Fistelkatze; Stimulator: Histamin; i.V.

From the text: Weiterhin kann die H2-antagonistische Wirkung an wachen Heidennain-Pouch-Hunden nach der Methode von Black et al., "Nature" 236, 385 (1972) und an wachen Fistelkatzen gezeigt werden.

As to `CN=C(NC#N)NCCSCc1nc[nH]c1C` [CIMETIDIN, Cimetidin], the ID50 was 1,4 umol/k^g.
